Laboratory results from US9512072B2, “Biodegradable computed tomography contrast agents” (Case Western Reserve University, priority 2013, dated 2016).

Test system: BALB/c mice
Assay: In vivo blood pool CT imaging on micro-CT scanner
Design: species or system mouse
Details: 350 mg-I/kg i.v.
Protocol: The polymeric contrast agents and the control contrast agent, iodixanol, were evaluated with BALB/c mice (18-22 g body weight, 6 mice per agent). All the mice were scanned on the same machine as the in vitro detection. The images were obtained at an x-ray voltage of 80 kVp, an anode current of 500 μA and an exposure time of 200 ms for every rotational steps (total rotation degree is 360 and rotation steps are 180). The field of view was […]. Images were reconstructed in a 1024 pixel×1024 pixel grid with a pixel size of 18 μm×18 μm. […]
CT values are expressed in Hounsfield Units (HU) and were obtained per organ by drawing volumetric regions of interest (RIOs). […] The average HU values and the standard deviation were calculated from the data with 3 ROIs per organ. The CT data was analyzed to determine the contrast enhancement of different agents at various time points post-injection. In vivo CT values of the regions of interest, such as heart, blood, liver and bladder, were measured to study the dynamic enhancement of different organs. […]
The effectiveness of the iodinated polydisulfides for in vivo contrast enhanced CT imaging was assessed in BALB/c mice (18-22 g body weight, 6 mice per agent) on a micro-CT scanner with iodixanol as a control agent. […]

Q: Which “vascular enhancement and delineation” value (10 min after injection) does the source give for `CC(=O)N(CC(O)CN(C(C)=O)c1c(I)c(C(=O)NCC(O)CO)c(I)c(C(=O)NCC(O)CO)c1I)c1c(I)c(C(=O)NCC(O)CO)c(I)c(C(=O)NCC(O)CO)c1I` (centres unmarked) [iodixanol] here?
A: did not produce any enhancement

Q: And the “blood signal at its peak” value (pre-injection 27±30 HU)?
A: 56±26 HU
